Measurements reported in US20260257992A1, “AGONISTS OF SMALL HETERODIMER PARTNER FOR CANCER THERAPY” (THE BOARD OF TRUSTEES OF THE UNIVERSITY OF ILLINOIS, priority 2023, published 2026).

Tests used:
[1] = tested on: inflammasome associated genes; assay: Inflammasome associated gene expression in BMDMs (LPS, nigericin); type: cell-based, mouse
Method: FIG. 8A-8D. DSHN-OMe attenuates induction of inflammasome associated genes when BMDMs are treated with both LPS and nigericin, not LPS alone. * indicates P<0.05 when comparing to DMSO.
Inflammasome activation, RNA extraction, quantitative real PCR. When comparing inflammasome responses, BMDMs were treated with 500 ng/mL LPS for 4 h 37° C. in complete RPMI 1640. After 4 hr priming, 15 μM Nigericin was added for 45 mins at 37° C. Next, media was removed, washed with PBS and inflammasome activation was assessed using qPCR or inflammasome caspase-1 activity was measured using Caspase-Glo® 1 inflammasome assay kit (G9951; Promega) according to manufacturer's instructions.

RAW 264.7 cells = assay: Compound uptake assay (LC-MS/MS); type: in vitro ADME; settings: for Intracellular compound concentration, 4 h / Intracellular compound concentration, 8 h / Intracellular compound concentration, 24 h: 50 μM
Method: Conversion of a carboxylic acid to an ester is often associated with better cellular uptake. Therefore, we explored whether the kinetics of uptake differed between the two compounds, using RAW 264.7 cells as a model for myeloid immune cells. RAW 264.7 cells were treated with 50 μM of DSHN or DSHN-OME for 4, 8 or 24 h. At the appropriate time-point cells were washed and subjected to LC-MS/MS to quantify intracellular compound concentration. […] At 8 h, 12.6 nM DSHN was detected.
Compound Uptake Assay. Cellular uptake of DSHN and DSHN-OMe was determined in RAW 264.7 cells cultured in 60×15 mm tissue culture dishes. Cells were treated with vehicle (0.1% DMSO), 50 μM DSHN or 50 μM DSHN-OMe for 4 h, 8 h, or 24 h. After incubation, cells were harvested, washed with PBS and cell pellets were incubated at −80° C. freezer. Next, cell pellets were resuspended in 200 μL 70:30 MeOH:H2O and sonicated to lyse cells. Debris from lysed cell suspension was removed by centrifugation. Resulting supernatant was analyzed by LC-MS/MS.

full length NR0B2 = target: T1, full length NR0B2 (Homo sapiens, UniProt Q15466); assay: Thermal shift assay with recombinant NR0B2; type: binding; settings: 1 mM ligand, 6 μM purified NR0B2; apo/unliganded 46.74±0.22
T1 construct: A gene containing a hexa-His-TEV fusion with full length NR0B2 in pET21(a)+ was transformed in E. coli BL21(DE3); hexa-His with TEV site; made in house; host or cells: E. coli BL21(DE3)
T1 sequence (Q15466 1-257): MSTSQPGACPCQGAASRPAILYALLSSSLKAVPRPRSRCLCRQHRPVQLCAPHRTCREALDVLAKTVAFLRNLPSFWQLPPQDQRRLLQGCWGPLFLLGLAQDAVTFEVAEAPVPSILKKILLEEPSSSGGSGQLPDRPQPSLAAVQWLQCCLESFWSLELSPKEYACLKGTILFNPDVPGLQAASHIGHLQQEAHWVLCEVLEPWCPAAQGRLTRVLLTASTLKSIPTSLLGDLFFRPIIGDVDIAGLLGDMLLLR
Method: Protein expression, purification, and thermal shift assay. A gene containing a hexa-His-TEV fusion with full length NR0B2 in pET21(a)+ was transformed in E. coli BL21(DE3). A single colony was used to inoculate a 100 mL starter culture of LB broth containing 100 μg/mL ampicillin, which was allowed to grow overnight with shaking at 37° C. This starter culture was used to inoculate flasks containing autoinducing media, which were grown at 37° C. with shaking until they reached an OD^600 of 0.8. Subsequently, the temperature was reduced to 16° C. and cells were allowed to grow for another 24 hours. After harvesting by centrifugation, cells were resuspended at 15 mL/g cell paste in a buffer comprised of 25 mM HEPES pH 8.0, 250 mM NaCl, 20 mM imidazole pH 8.0, 5% glycerol, 0.5 mM TCEP, and Roche EDTA-free protease inhibitor cocktail. Cells were lysed by sonication then centrifuged at 18,000×g for 30 minutes to remove insoluble material. The lysate was loaded onto a gravity flow Ni-NTA column, washed with 5 column volumes (CVs) of resuspension buffer, and protein was eluted using the resuspension buffer supplemented with 500 mM imidazole. Collected protein was dialyzed overnight in the resuspension buffer without imidazole then concentrated and purified on a Superdex 200 HiLoad 200 16/600 size exclusion column. […]

ABCA1 mRNA = ABCA1 mRNA reduction in Raw cells; type: cell-based; design: key: ✓: using strict cutoffs with respect to DSHN for passing each metric; X: using strict cutoffs with respect to DSHN for passing each metric; settings: pass/fail with respect to DSHN
Source text: Development of a more efficacious NR0B2 agonist. While DSHN was a useful proof-of-concept small molecule, macrophages required high doses and chronic exposure for robust influences on subsequent Tregs expansion. […] Therefore, we synthesized several derivatives of DSHN and screened them using a reporter assay which makes use of the endogenous cholesterol homeostatic feedback loop, where FXR activation upregulates NR0B2, which then inhibits LXR and its normal induction of ABCA1. We then followed this screen with several others with stringent cutoffs: effect on endogenous ABCA1 and IL1β expression, reduction of Treg expansion in either macrophage or DC co-cultures, and low cellular toxicity (FIG. 5A, Table 4).

Row | Compound | Expression of inflammasome associated genes, priming and activation signal [1] | Intracellular compound concentration, 4 h (RAW 264.7 cells) | Intracellular compound concentration, 8 h (RAW 264.7 cells) | Intracellular compound concentration, 24 h (RAW 264.7 cells) | NR0B2 thermal melt temperature (TM) (full length NR0B2) [°C] | Difference in intracellular concentration, DSHN-OMe versus DSHN (RAW 264.7 cells) [log] | ABCA1 mRNA reduction (Raw Cells) (ABCA1 mRNA)
1 | CCN(CC)S(=O)(=O)c1cccc2cc(C(=O)O)c(O)cc12 [DSHN, reference compound] | able to blunt the expression of inflammasome associated genes | below detection limits | 12.6 nM | no intracellular DSHN was detected | 46.34±0.51 |  | 
2 | CCN(CC)S(=O)(=O)c1cccc2cc(C(=O)OC)c(O)cc12 [DSHN-OMe, Methyl 5-(N,N-diethylsulfamoyl)-3-hydroxy-2-naphthoate] | able to blunt the expression of inflammasome associated genes | 7,481 nM | 19,279 nM | 11,089 nM | 46.92±0.17 | > 2 | ✓
